Where a name gives a salt, the structure may show the parent alone.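 Grown in 96-well plates, cells were treated for 48 hours with each compound at five concentrations. Insufficient inhibition: endpoint recorded as highest concentration tested. Here, GI50 denotes the concentration required for 50% inhibition of growth.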 The source made the active and inactive calls. Rule as the data show it: active = GI50 up to about 1.1 µM and inactive = higher.
Tests used:
Experiment in all cases: NCI anticancer screen, dose series, 48 h
[1] = test system: UACC-62
[2] = test system: OVCAR-3
[3] = test system: SF-295
[4] = test system: LOX IMVI
[5] = test system: HT-29
[6] = test system: MCF7
[7] = test system: A549
[8] = test system: 786-0
[9] = test system: OVCAR-8
[10] = test system: HOP-62
[11] = test system: OVCAR-5
[12] = test system: NCI-H23
[13] = test system: OVCAR-4
[14] = test system: SR
[15] = test system: SK-MEL-2
[16] = test system: SW-620
[17] = test system: SK-MEL-28
[18] = test system: M14

Structure (SMILES)	GI50 [1]	GI50 [2]	GI50 [3]	GI50 [4]	GI50 [5]	GI50 [6]	GI50 [7]	GI50 [8]	GI50 [9]	GI50 [10]	GI50 [11]	GI50 [12]	GI50 [13]	GI50 [14]	GI50 [15]	GI50 [16]	GI50 [17]	GI50 [18]
Cc1ccc2nc(CC(=O)c3ccc4ccccc4c3)c(O)nc2c1	> 100 µM (inactive)	> 100 µM (inactive)	> 100 µM (inactive)	> 100 µM (inactive)	66.2 µM (inactive)	> 100 µM (inactive)	> 100 µM (inactive)	> 100 µM (inactive)	> 100 µM (inactive)	> 100 µM (inactive)	> 100 µM (inactive)	> 100 µM (inactive)	> 100 µM (inactive)	> 100 µM (inactive)	> 100 µM (inactive)	> 100 µM (inactive)	> 100 µM (inactive)	> 100 µM (inactive)
COC(=O)c1cc2c(cc1CC1Cc3cc4c(cc3C1)CCC4)CCC2	–	38.6 µM (inactive)	55 µM (inactive)	24.3 µM (inactive)	36.3 µM (inactive)	25.4 µM (inactive)	60.4 µM (inactive)	> 100 µM (inactive)	> 100 µM (inactive)	> 100 µM (inactive)	43.5 µM (inactive)	44.4 µM (inactive)	84.7 µM (inactive)	19.1 µM (inactive)	24.3 µM (inactive)	> 100 µM (inactive)	19.5 µM (inactive)	63.8 µM (inactive)
Cc1cc(CNC(=O)OCc2ccccc2)c(C)c2c1Oc1ccccc1O2	26.5 µM (inactive)	57.8 µM (inactive)	31.8 µM (inactive)	> 100 µM (inactive)	20.2 µM (inactive)	49.5 µM (inactive)	20.9 µM (inactive)	15 µM (inactive)	17.1 µM (inactive)	17.4 µM (inactive)	43.4 µM (inactive)	24.3 µM (inactive)	21.3 µM (inactive)	> 100 µM (inactive)	< 0.01 µM (active)	> 100 µM (inactive)	> 100 µM (inactive)	69.7 µM (inactive)
c1ccc(C(=NNc2nc3ccccc3[nH]2)c2ccccn2)nc1	0.222 µM (active)	0.0393 µM (active)	2.13 µM (inactive)	0.172 µM (active)	0.0221 µM (active)	0.143 µM (active)	0.3 µM (active)	0.123 µM (active)	0.0993 µM (active)	0.207 µM (active)	1.74 µM (inactive)	0.24 µM (active)	0.0592 µM (active)	0.0371 µM (active)	12.9 µM (inactive)	0.0698 µM (active)	0.185 µM (active)	0.126 µM (active)
COc1ccc(-c2c3c(n(C4OC(CO)C(O)C(O)C4O)c(=S)c2C#N)CC(C)(C)CC3=O)cc1 (stereo unspecified)	97.3 µM (inactive)	> 100 µM (inactive)	> 100 µM (inactive)	> 100 µM (inactive)	> 100 µM (inactive)	> 100 µM (inactive)	> 100 µM (inactive)	> 100 µM (inactive)	> 100 µM (inactive)	> 100 µM (inactive)	> 100 µM (inactive)	> 100 µM (inactive)	> 100 µM (inactive)	74.5 µM (inactive)	> 100 µM (inactive)	–	> 100 µM (inactive)	> 100 µM (inactive)
Cc1c(F)c(N)c2c(=O)cc(-c3ccc(NC(=O)C(N)CCCNC(=N)N)c(F)c3)oc2c1F (stereo unspecified)	–	–	> 37.6 µM (inactive)	38.1 µM (inactive)	> 71.8 µM (inactive)	0.0893 µM (active)	3.68 µM (inactive)	29 µM (inactive)	32.1 µM (inactive)	> 52.2 µM (inactive)	0.299 µM (active)	27.9 µM (inactive)	0.141 µM (active)	43 µM (inactive)	23.4 µM (inactive)	> 61.5 µM (inactive)	24.7 µM (inactive)	31.7 µM (inactive)
C/N=c1/oc2ccccc2cc1C(N)=O	64.1 µM (inactive)	> 100 µM (inactive)	> 100 µM (inactive)	> 100 µM (inactive)	> 100 µM (inactive)	87.7 µM (inactive)	> 100 µM (inactive)	> 100 µM (inactive)	> 100 µM (inactive)	> 100 µM (inactive)	–	> 100 µM (inactive)	–	> 100 µM (inactive)	> 100 µM (inactive)	> 100 µM (inactive)	> 100 µM (inactive)	> 100 µM (inactive)
Cc1nc2ccc([N+](=O)[O-])cc2c(=O)n1C(=S)Nc1cccc(Cl)c1	12.5 µM (inactive)	12.3 µM (inactive)	18.3 µM (inactive)	12.9 µM (inactive)	17.7 µM (inactive)	17.2 µM (inactive)	23.2 µM (inactive)	24.7 µM (inactive)	–	19.2 µM (inactive)	28.2 µM (inactive)	13.8 µM (inactive)	19.5 µM (inactive)	31 µM (inactive)	6.18 µM (inactive)	22 µM (inactive)	17.6 µM (inactive)	21.9 µM (inactive)
Nc1ccc2nc(N)n[n+]([O-])c2c1	> 100 µM (inactive)	> 100 µM (inactive)	10 µM (inactive)	> 100 µM (inactive)	> 100 µM (inactive)	> 100 µM (inactive)	> 100 µM (inactive)	> 100 µM (inactive)	> 100 µM (inactive)	> 100 µM (inactive)	> 100 µM (inactive)	> 100 µM (inactive)	> 100 µM (inactive)	> 100 µM (inactive)	> 100 µM (inactive)	> 100 µM (inactive)	> 100 µM (inactive)	> 100 µM (inactive)
COc1cc(CSc2ccc(O)cc2)cc(O)c1O	22.8 µM (inactive)	26.2 µM (inactive)	23.2 µM (inactive)	36.2 µM (inactive)	22.2 µM (inactive)	17.6 µM (inactive)	46.7 µM (inactive)	36.2 µM (inactive)	26.2 µM (inactive)	44.7 µM (inactive)	23.4 µM (inactive)	41.8 µM (inactive)	–	21.7 µM (inactive)	24.5 µM (inactive)	38.5 µM (inactive)	46.2 µM (inactive)	20.5 µM (inactive)
COc1ccccc1NC(=O)CC(=O)N1N=C(N2c3ccccc3Sc3ccccc32)CC1c1ccccc1 (stereo unspecified)	> 100 µM (inactive)	> 100 µM (inactive)	> 100 µM (inactive)	–	> 100 µM (inactive)	> 100 µM (inactive)	> 100 µM (inactive)	> 100 µM (inactive)	> 100 µM (inactive)	> 100 µM (inactive)	> 100 µM (inactive)	> 100 µM (inactive)	> 100 µM (inactive)	> 100 µM (inactive)	> 100 µM (inactive)	> 100 µM (inactive)	> 100 µM (inactive)	> 100 µM (inactive)
O=C1C(Cl)=C(N(C(=O)c2ccccc2)C(=O)c2ccccc2)C(=O)c2ccccc21	5.12 µM (inactive)	10.9 µM (inactive)	28.2 µM (inactive)	25.6 µM (inactive)	24.7 µM (inactive)	10.1 µM (inactive)	16.4 µM (inactive)	14.5 µM (inactive)	54 µM (inactive)	49 µM (inactive)	12.2 µM (inactive)	5.42 µM (inactive)	–	15.5 µM (inactive)	11.4 µM (inactive)	5.15 µM (inactive)	14.9 µM (inactive)	14.4 µM (inactive)
CCOC(=O)C1C(=O)C=C(c2cc(C)ccc2O)CC1c1cccc(Br)c1 (stereo unspecified)	14 µM (inactive)	21.5 µM (inactive)	13.6 µM (inactive)	15.6 µM (inactive)	18.9 µM (inactive)	14.9 µM (inactive)	20.1 µM (inactive)	17.6 µM (inactive)	30 µM (inactive)	46.7 µM (inactive)	25.1 µM (inactive)	17.5 µM (inactive)	0.075 µM (active)	5.13 µM (inactive)	18.5 µM (inactive)	25 µM (inactive)	–	17.4 µM (inactive)
O=C(O)Cn1ccc(=O)c2c([N+](=O)[O-])cccc21	> 100 µM (inactive)	> 100 µM (inactive)	> 100 µM (inactive)	–	> 100 µM (inactive)	> 100 µM (inactive)	> 100 µM (inactive)	> 100 µM (inactive)	> 100 µM (inactive)	> 100 µM (inactive)	> 100 µM (inactive)	> 100 µM (inactive)	–	> 100 µM (inactive)	> 100 µM (inactive)	> 100 µM (inactive)	> 100 µM (inactive)	> 100 µM (inactive)
O=S(=O)(c1ccc(/N=N/O)nc1)c1ccc2ccccc2c1	98.4 µM (inactive)	> 100 µM (inactive)	> 100 µM (inactive)	–	65.8 µM (inactive)	> 100 µM (inactive)	> 100 µM (inactive)	> 100 µM (inactive)	> 100 µM (inactive)	> 100 µM (inactive)	> 100 µM (inactive)	65.9 µM (inactive)	32.6 µM (inactive)	> 100 µM (inactive)	> 100 µM (inactive)	> 100 µM (inactive)	> 100 µM (inactive)	> 100 µM (inactive)
NCCc1cc(O)c(O)cc1O [OXIDOPAMINE HYDROCHLORIDE]	31.2 µM (inactive)	55.7 µM (inactive)	24 µM (inactive)	–	32.3 µM (inactive)	25.3 µM (inactive)	35 µM (inactive)	18.6 µM (inactive)	32.4 µM (inactive)	22.9 µM (inactive)	37.1 µM (inactive)	–	–	0.619 µM (active)	43.5 µM (inactive)	21 µM (inactive)	> 100 µM (inactive)	20 µM (inactive)
